Measurements reported in patent US11629171B2, “Beta-hairpin peptidomimetics” (POLYPHOR AG, priority 2017, dated 2023).
≈ marks a conversion by molar mass, not a printed value. Where a SMILES comes first, the peptide text is derived from it. Bridges are numbered along the chain shown (N, C = ends). Roman numbers before positions name the chains, in order. [ ]: non-standard residue; d: D form. Pen = CC(C)(S)[C@H](N)C(=O)O; Tle = CC(C)(C)[C@H](N)C(=O)O; Hiv = CC(C)[C@H](O)C(=O)O; dDab = NCC[C@@H](N)C(=O)O; Dab = NCC[C@H](N)C(=O)O; Dap = NC[C@H](N)C(=O)O

Key:
Type in all cases: cell-based
[1] = system: Acinetobacter baumannii 872842; conditions: 872842
In short: (§1)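 Standard CLSI microdilution testing: bacterial suspensions standardized against 0.5 McFarland to about 10^6 CFU/mL in MH-II broth meet serially halved peptide concentrations in broth containing 0.002% polysorbate 80; incubation lasts 18-20 h at 35° C before the MIC is scored.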

[2] = system: Acinetobacter baumannii DSM 30008; conditions: DSM 30008
In short: as §1

[3] = system: Enterobacter cloacae 848840; conditions: 848840
In short: as §1

Escherichia coli 926415 = conditions: 926415
In short: as §1

[4] = system: Escherichia coli ATCC 25922; conditions: ATCC 25922
In short: as §1

[5] = system: Klebsiella pneumoniae 968733; conditions: 968733
In short: as §1

[6] = system: Klebsiella pneumoniae SSI #3010; conditions: SSI #3010
In short: as §1

[7] = system: Pseudomonas aeruginosa ATCC 27853; conditions: ATCC 27853
In short: as §1

[8] = system: human red blood cells (hRBC); assay: Hemolysis; conditions: red cells of human, 1 h, 200
In short: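 Percent lysis of human red cells was derived from OD540 of the supernatant, referenced to 2% Triton X-100, after a 1 h, 37° C incubation of 20% (v/v) cells with 200 μg/mL peptide.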

| SMILES | MIC [1] [µg/mL] | MIC [2] [µg/mL] | MIC [3] [µg/mL] | MIC (Escherichia coli 926415) [µg/mL] | MIC [4] [µg/mL] | MIC [5] [µg/mL] | MIC [6] [µg/mL] | MIC [7] [µg/mL] | Hemolysis at 200 μg/mL [8] [%] | Acinetobacter baumannii DSM 30008 MIC [2] [µg/mL] | Escherichia coli ATCC 25922 MIC [4] [µg/mL] | Klebsiella pneumoniae SSI #3010 MIC [6] [µg/mL] | Pseudomonas aeruginosa ATCC 27853 MIC [7] [µg/mL] |
| --- | --- | --- | --- | --- | --- | --- | --- | --- | --- | --- | --- | --- | --- |
| CC(=O)N[C@H](C(=O)N[C@H]1CSSC[C@@H](C(=O)N[C@@H](CO)C(N)=O)NC(=O)[C@H](C(C)C)NC(=O)[C@H](CCC(=O)O)NC(=O)[C@H](Cc2c[nH]c3ccccc23)NC(=O)[C@H](CCN)NC(=O)[C@@H](CCN)NC(=O)[C@H](CCC(=O)N[C@@H](CCN)C(=O)N[C@H](C(=O)N[C@@H](CN)C(=O)N[C@H]2CCNC(=O)[C@H]([C@@H](C)O)NC(=O)[C@H](CCN)NC(=O)[C@H](CCN)NC(=O)[C@H](CC(C)C)NC(=O)[C@@H](CC(C)C)NC(=O)[C@H](CCN)NC2=O)[C@@H](C)O)NC(=O)[C@H](CO)NC(=O)[C@H](Cc2ccc(O)cc2)NC1=O)C(C)C [Ex. 268] (I: Ac-VCYSE[dDab][Dab]WEVCS-NH2 / II: [Dab]T[Dap][Dab][Dab][dL]L[Dab][Dab]T; disulfide I:2-I:11; amide I:5-II:N; lactam II:4-II:C) | 0.125 (≈ 0.0512 µM) | 0.03125 (≈ 0.0128 µM) | 0.25 (≈ 0.102 µM) | 0.5 (≈ 0.205 µM) | 0.0625 (≈ 0.0256 µM) | 0.5 (≈ 0.205 µM) | 0.0625 (≈ 0.0256 µM) | 0.125 (≈ 0.0512 µM) | <1 | – | – | – | – |
| CC(C)C[C@@H]1NC(=O)[C@@H](CC(C)C)NC(=O)[C@H](CCN)NC(=O)[C@@H](NC(=O)[C@H](CN)NC(=O)[C@@H](NC(=O)[C@H](CCN)NC(=O)CC[C@@H]2NC(=O)[C@H](CO)NC(=O)[C@H](Cc3ccc(O)cc3)NC(=O)[C@@H](NC(=O)[C@@H](O)C(C)C)CSSC[C@@H](C(=O)N[C@@H](CO)C(N)=O)NC(=O)[C@H](C(C)(C)C)NC(=O)[C@H](CO)NC(=O)[C@H](Cc3c[nH]c4ccccc34)NC(=O)[C@H](CCN)NC(=O)[C@@H](CCN)NC2=O)[C@@H](C)O)CCNC(=O)[C@H]([C@@H](C)O)NC(=O)[C@H](CCN)NC(=O)[C@H](CCN)NC1=O [Ex. 271] (I: H-[Hiv]CYSE[dDab][Dab]WS[Tle]CS-NH2 / II: [Dab]T[Dap][Dab][Dab][dL]L[Dab][Dab]T; disulfide I:2-I:11; amide I:5-II:N; lactam II:4-II:C) | 0.0625 (≈ 0.0264 µM) | 0.03125 (≈ 0.0132 µM) | 0.25 (≈ 0.105 µM) | 0.0625 (≈ 0.0264 µM) | 0.03125 (≈ 0.0132 µM) | 0.0625 (≈ 0.0264 µM) | 0.0625 (≈ 0.0264 µM) | 0.0625 (≈ 0.0264 µM) | <1 | – | – | – | – |
| CC(=O)N[C@H](C(=O)N[C@H]1CSSC[C@@H](C(=O)N[C@@H](CO)C(N)=O)NC(=O)[C@H](C(C)C)NC(=O)[C@H](CO)NC(=O)[C@H](Cc2c[nH]c3ccccc23)NC(=O)[C@H](CCN)NC(=O)[C@@H](CCN)NC(=O)[C@H](CCC(=O)N[C@@H](CCN)C(=O)N[C@H](C(=O)N[C@@H](CCN)C(=O)N[C@H]2CCNC(=O)[C@H]([C@@H](C)O)NC(=O)[C@H](CCN)NC(=O)[C@H](CCN)NC(=O)[C@H](CC(C)C)NC(=O)[C@@H](CC(C)C)NC(=O)[C@H](CCN)NC2=O)[C@@H](C)O)NC(=O)[C@H](CO)NC(=O)[C@H](Cc2ccc(O)cc2)NC1=O)C(C)C [Ex. 272] (I: Ac-VCYSE[dDab][Dab]WSVCS-NH2 / II: [Dab]T[Dab][Dab][Dab][dL]L[Dab][Dab]T; disulfide I:2-I:11; amide I:5-II:N; lactam II:4-II:C) | 0.0625 (≈ 0.0259 µM) | 0.0625 (≈ 0.0259 µM) | 0.25 (≈ 0.104 µM) | 0.125 (≈ 0.0518 µM) | 0.0625 (≈ 0.0259 µM) | 0.125 (≈ 0.0518 µM) | 0.0625 (≈ 0.0259 µM) | 0.125 (≈ 0.0518 µM) | <1 | – | – | – | – |
| CC(=O)N[C@H](C(=O)N[C@H]1CC(=O)NCC[C@@H](C(=O)N[C@@H](CO)C(N)=O)NC(=O)[C@H](C(C)C)NC(=O)[C@H](CO)NC(=O)[C@H](Cc2c[nH]c3ccccc23)NC(=O)CNC(=O)[C@@H](CCN)NC(=O)[C@H](CCC(=O)N[C@@H](CCN)C(=O)N[C@H](C(=O)N[C@@H](CN)C(=O)N[C@H]2CCNC(=O)[C@H]([C@@H](C)O)NC(=O)[C@H](CCN)NC(=O)[C@H](CCN)NC(=O)[C@H](CC(C)C)NC(=O)[C@@H](CC(C)C)NC(=O)[C@H](CCN)NC2=O)[C@@H](C)O)NC(=O)[C@H](CO)NC(=O)[C@H](Cc2ccc(O)cc2)NC1=O)C(C)C [Ex. 292] (I: Ac-VDYSE[dDab]GWSV[Dab]S-NH2 / II: [Dab]T[Dap][Dab][Dab][dL]L[Dab][Dab]T; lactam I:2-I:11, II:4-II:C; amide I:5-II:N) | 0.5 (≈ 0.213 µM) | 0.125 (≈ 0.0532 µM) | 1 (≈ 0.426 µM) | 1 (≈ 0.426 µM) | 0.0625 (≈ 0.0266 µM) | 4 (≈ 1.7 µM) | 0.25 (≈ 0.106 µM) | 0.125 (≈ 0.0532 µM) | <1 | – | – | – | – |
| CC(C)C[C@@H]1NC(=O)[C@@H](CC(C)C)NC(=O)[C@H](CCN)NC(=O)[C@@H](NC(=O)[C@H](CN)NC(=O)[C@@H](NC(=O)[C@H](CCN)NC(=O)CC[C@@H]2NC(=O)[C@H](CCN)NC(=O)[C@H](Cc3ccc(O)cc3)NC(=O)[C@@H](NC(=O)[C@@H](O)C(C)C)CSSC(C)(C)[C@@H](C(=O)N[C@@H](CO)C(N)=O)NC(=O)[C@H](C(C)C)NC(=O)[C@H](CO)NC(=O)[C@H](Cc3c[nH]c4ccccc34)NC(=O)[C@H](CO)NC(=O)[C@@H](CCN)NC2=O)[C@@H](C)O)CCNC(=O)[C@H]([C@@H](C)O)NC(=O)[C@H](CCN)NC(=O)[C@H](CCN)NC1=O [Ex. 301] (I: H-[Hiv]CY[Dab]E[dDab]SWSV[Pen]S-NH2 / II: [Dab]T[Dap][Dab][Dab][dL]L[Dab][Dab]T; disulfide I:2-I:11; amide I:5-II:N; lactam II:4-II:C) | 0.25 (≈ 0.105 µM) | – | 0.125 (≈ 0.0524 µM) | 0.125 (≈ 0.0524 µM) | – | 0.5 (≈ 0.21 µM) | – | – | 2 | 0.0625 | 0.0625 | 0.125 | 0.125 |
| CC(=O)N[C@H](C(=O)N[C@H]1CCN(C)C(=O)C[C@@H](C(=O)N[C@@H](CO)C(N)=O)NC(=O)[C@H](C(C)C)NC(=O)[C@H](CO)NC(=O)[C@H](Cc2c[nH]c3ccccc23)NC(=O)[C@H](CO)NC(=O)[C@@H](CCN)NC(=O)[C@H](CCC(=O)N[C@@H](CCN)C(=O)N[C@H](C(=O)N[C@@H](CN)C(=O)N[C@H]2CCNC(=O)[C@H]([C@@H](C)O)NC(=O)[C@H](CCN)NC(=O)[C@H](CCN)NC(=O)[C@H](CC(C)C)NC(=O)[C@@H](CC(C)C)NC(=O)[C@H](CCN)NC2=O)[C@@H](C)O)NC(=O)[C@H](CCN)NC(=O)[C@H](Cc2ccc(O)cc2)NC1=O)C(C)C [Ex. 302] | 0.5 (≈ 0.208 µM) | – | 0.5 (≈ 0.208 µM) | 2 (≈ 0.831 µM) | – | 2 (≈ 0.831 µM) | – | – | 3 | 0.125 | 0.0625 | 0.125 | 0.125 |
| CC(=O)N[C@H](C(=O)N[C@H]1CCN(C)C(=O)CC[C@@H](C(=O)N[C@@H](CO)C(N)=O)NC(=O)[C@H](C(C)C)NC(=O)[C@H](CO)NC(=O)[C@H](Cc2c[nH]c3ccccc23)NC(=O)[C@H](CO)NC(=O)[C@@H](CCN)NC(=O)[C@H](CCC(=O)N[C@@H](CCN)C(=O)N[C@H](C(=O)N[C@@H](CN)C(=O)N[C@H]2CCNC(=O)[C@H]([C@@H](C)O)NC(=O)[C@H](CCN)NC(=O)[C@H](CCN)NC(=O)[C@H](CC(C)C)NC(=O)[C@@H](CC(C)C)NC(=O)[C@H](CCN)NC2=O)[C@@H](C)O)NC(=O)[C@H](CCN)NC(=O)[C@H](Cc2ccc(O)cc2)NC1=O)C(C)C [Ex. 303] | 0.5 (≈ 0.207 µM) | – | 1 (≈ 0.413 µM) | 1 (≈ 0.413 µM) | – | 1 (≈ 0.413 µM) | – | – | <1 | 0.25 | 0.0625 | 0.0625 | 0.25 |
| CC(C)C[C@@H]1NC(=O)[C@@H](CC(C)C)NC(=O)[C@H](CCN)NC(=O)[C@@H](NC(=O)[C@H](CN)NC(=O)[C@@H](NC(=O)[C@H](CCN)NC(=O)CC[C@@H]2NC(=O)[C@H](CCN)NC(=O)[C@H](Cc3ccc(O)cc3)NC(=O)[C@@H](NC(=O)[C@@H](O)C(C)C)CCN(C)C(=O)C[C@@H](C(=O)N[C@@H](CO)C(N)=O)NC(=O)[C@H](C(C)C)NC(=O)[C@H](CO)NC(=O)[C@H](Cc3c[nH]c4ccccc34)NC(=O)[C@H](CO)NC(=O)[C@@H](CCN)NC2=O)[C@@H](C)O)CCNC(=O)[C@H]([C@@H](C)O)NC(=O)[C@H](CCN)NC(=O)[C@H](CCN)NC1=O [Ex. 304] | 1 (≈ 0.423 µM) | – | 2 (≈ 0.846 µM) | 2 (≈ 0.846 µM) | – | 4 (≈ 1.69 µM) | – | – | <1 | 0.25 | 0.125 | 0.0625 | 0.25 |
